Reference: ChEMBL document CHEMBL3886265, “Imidazole amines as modulators of kinase activity” (2015)

How the values were obtained:
[1] = target: Ribosomal protein S6 kinase beta-1 (Homo sapiens, UniProt P23443, T412E); assay: P70S6K Enzyme Assay: P70S6K inhibitor compounds are diluted and plated in 96 well plates. A reaction mixture including the following components is then added to the compound plate to initiate the enzyme reaction; P70S6K (3 nM, T412E mutant, Millipore) is mixed with 24 uM ATP in an assay buffer containing 100 mM Hepes (pH 7.5), 5 mM MgCl2, 1 mM DTT, 0.015% Brij and 1 uM of the substrate peptide FITC-AHA-[…]-OH (derived from the S6 ribosomal protein sequence, FITC=fluorescein isothiocyanate, AHA=6-aminohexanoic acid). The reaction is incubated for 90 min at 25° C., before the addition of 10 mM EDTA to stop the reaction. The proportion of substrate and product (phosphorylated) peptide is analysed on a Caliper Life Sciences Lab Chip 3000, using a pressure of -1.4 psi, and upstream and downstream voltages of -3000 and -700 respectively. Product peaks are resolved before substrate peaks on the resulting chromatograms.
[2] = target: RAC-alpha serine/threonine-protein kinase (Homo sapiens, UniProt P31749); assay: AKT Enzyme Assay: A TTP Mosquito liquid handling instrument is used to place 125 nl of the appropriate concentration of inhibitor in 100% DMSO (for a dose response curve calculation) into each well of a 384-well plate. To this reaction components are added to a final volume of 12.5 µl: 0.1 ng/µl His-AKT (Full Length), (Invitrogen, Part # P2999, Lot #641228C). 160 uM ATP (Fluka, 02055) 1 mM DTT (Sigma, D0632) 1 mM MgCl2 (Sigma, M1028) 1 µM substrate peptide (sequence FITC-AHA-[…]-NH2), synthesized by Tufts Peptide Synthesis service. 100 mM HEPES pH 7.5 (Calbiochem, 391338)0.015% Brij-35 (Sigma, B4184)The reaction is incubated for 90 min at 25 C, and then stopped by the addition of 70 µl of Stop buffer (100 mM HEPES pH 7.5, 0.015% Brij-35, 10 mM EDTA (Sigma, E7889)).The plate is read on a Caliper LC 3000 in an Off-Chip mobility shift assay format, using the following parameters for a 12-sipper chip: screening pressure -2.3 psi, upstream voltage -500, and downstream voltage -3000.
Sequence of RAC-alpha serine/threonine-protein kinase (P31749 whole entry): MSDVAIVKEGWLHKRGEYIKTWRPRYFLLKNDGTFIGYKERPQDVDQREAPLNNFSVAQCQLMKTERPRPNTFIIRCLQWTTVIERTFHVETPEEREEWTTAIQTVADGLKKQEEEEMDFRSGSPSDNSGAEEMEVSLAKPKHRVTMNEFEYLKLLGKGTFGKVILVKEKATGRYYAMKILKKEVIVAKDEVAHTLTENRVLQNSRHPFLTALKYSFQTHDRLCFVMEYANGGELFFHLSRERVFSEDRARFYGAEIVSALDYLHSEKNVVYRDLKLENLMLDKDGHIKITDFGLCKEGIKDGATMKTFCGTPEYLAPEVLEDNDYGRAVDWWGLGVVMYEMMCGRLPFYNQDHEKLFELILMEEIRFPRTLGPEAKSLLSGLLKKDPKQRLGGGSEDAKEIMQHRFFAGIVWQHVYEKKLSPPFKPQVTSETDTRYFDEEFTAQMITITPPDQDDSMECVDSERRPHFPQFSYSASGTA

Sequence of Ribosomal protein S6 kinase beta-1 (P23443 whole entry T412E): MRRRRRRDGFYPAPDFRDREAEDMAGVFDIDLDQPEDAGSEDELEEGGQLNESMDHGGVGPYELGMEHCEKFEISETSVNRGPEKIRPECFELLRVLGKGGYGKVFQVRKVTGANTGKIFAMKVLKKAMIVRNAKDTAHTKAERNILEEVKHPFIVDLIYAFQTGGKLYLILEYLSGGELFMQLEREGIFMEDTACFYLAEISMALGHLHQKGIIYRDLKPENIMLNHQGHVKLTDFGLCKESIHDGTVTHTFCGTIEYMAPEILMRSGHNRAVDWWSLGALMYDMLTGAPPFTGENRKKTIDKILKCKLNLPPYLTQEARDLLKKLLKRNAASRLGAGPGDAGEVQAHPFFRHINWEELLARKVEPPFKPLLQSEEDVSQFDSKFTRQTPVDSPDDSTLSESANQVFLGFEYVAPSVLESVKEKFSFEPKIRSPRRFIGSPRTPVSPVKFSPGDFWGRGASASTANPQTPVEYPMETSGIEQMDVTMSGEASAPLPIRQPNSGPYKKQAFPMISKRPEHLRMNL

IC50 [1]: 58 nM | IC50 [2]: 780 nM
Compound: CCc1c(N)ncnc1N1CCC(c2nc(-c3cccc(Cl)n3)cn2CCN2CCC2)CC1
